Data published in ChEMBL document CHEMBL4507279, “Data for DCP probe BI-9627” (2021).
Calls of active or inactive are those of the source. No cut-off for these calls is given here.

Assays:
[1] = target: MAP/microtubule affinity-regulating kinase 3 (Homo sapiens) (UniProt P27448); settings: Compound concentration 1000.0 nM
[2] = target: Histamine H2 receptor (Homo sapiens) (UniProt P25021); settings: Compound concentration 10.0 uM
[3] = target: 5-hydroxytryptamine receptor 2A (Homo sapiens, UniProt P28223); experiment: GPCRScan assay: inhibition of 5-HT2A; design: radioligand conc. used [nm] 1.2 – 2.4, parental cells HEKT
[4] = target: 5-hydroxytryptamine receptor 1A (Homo sapiens) (UniProt P08908); experiment: 5HT1A/HU Eurofins-Panlabs selectivity data (BI); settings: Compound concentration 10.0 uM
Sequence of 5-hydroxytryptamine receptor 1A (Homo sapiens) (P08908 whole entry): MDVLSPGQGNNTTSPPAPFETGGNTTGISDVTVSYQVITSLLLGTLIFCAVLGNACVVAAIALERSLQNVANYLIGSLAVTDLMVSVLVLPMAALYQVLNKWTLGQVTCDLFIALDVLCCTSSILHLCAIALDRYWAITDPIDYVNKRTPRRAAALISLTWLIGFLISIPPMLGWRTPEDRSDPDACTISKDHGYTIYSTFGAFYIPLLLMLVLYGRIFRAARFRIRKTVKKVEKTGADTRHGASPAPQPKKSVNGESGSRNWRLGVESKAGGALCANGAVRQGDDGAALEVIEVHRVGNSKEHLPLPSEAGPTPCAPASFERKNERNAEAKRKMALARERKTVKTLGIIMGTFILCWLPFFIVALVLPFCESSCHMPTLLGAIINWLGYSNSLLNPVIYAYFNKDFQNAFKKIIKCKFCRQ

[5] = target: Sodium-dependent serotonin transporter (Homo sapiens) (UniProt P31645); experiment: 5HTTRANS/HU Eurofins-Panlabs selectivity data (BI); settings: Compound concentration 10.0 uM
[6] = target: Adenosine receptor A2a (Homo sapiens) (UniProt P29274); experiment: A2A/HU Eurofins-Panlabs selectivity data (BI); settings: Compound concentration 10.0 uM
[7] = target: T1, Alpha-1A adrenergic receptor (Homo sapiens) (UniProt P35348); experiment: ALPHA1A/R Eurofins-Panlabs selectivity data (BI); settings: Rattus norvegicus; Compound concentration 10.0 uM
T1 sequence (whole entry): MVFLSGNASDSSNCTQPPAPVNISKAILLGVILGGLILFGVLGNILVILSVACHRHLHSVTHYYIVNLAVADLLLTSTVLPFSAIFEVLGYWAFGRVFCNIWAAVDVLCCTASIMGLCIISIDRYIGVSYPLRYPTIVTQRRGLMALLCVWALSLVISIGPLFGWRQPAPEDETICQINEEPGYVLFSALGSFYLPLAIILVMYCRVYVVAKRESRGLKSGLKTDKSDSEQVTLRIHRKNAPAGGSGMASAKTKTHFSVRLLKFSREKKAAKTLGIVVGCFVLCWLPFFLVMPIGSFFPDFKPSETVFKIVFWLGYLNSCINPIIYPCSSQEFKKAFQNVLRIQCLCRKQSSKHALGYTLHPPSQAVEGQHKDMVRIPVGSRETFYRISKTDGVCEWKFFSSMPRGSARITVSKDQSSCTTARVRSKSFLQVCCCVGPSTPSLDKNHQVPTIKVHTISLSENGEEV

[8] = target: Voltage-dependent L-type calcium channel subunit alpha-1C (DHP site) (Rattus norvegicus, UniProt P22002); experiment: CA+/DHPSI/RA Eurofins-Panlabs selectivity data (BI); settings: compound concentration 10 uM, read-out: % Ctrl
Sequence of Voltage-dependent L-type calcium channel subunit alpha-1C (DHP site) (P22002 whole entry): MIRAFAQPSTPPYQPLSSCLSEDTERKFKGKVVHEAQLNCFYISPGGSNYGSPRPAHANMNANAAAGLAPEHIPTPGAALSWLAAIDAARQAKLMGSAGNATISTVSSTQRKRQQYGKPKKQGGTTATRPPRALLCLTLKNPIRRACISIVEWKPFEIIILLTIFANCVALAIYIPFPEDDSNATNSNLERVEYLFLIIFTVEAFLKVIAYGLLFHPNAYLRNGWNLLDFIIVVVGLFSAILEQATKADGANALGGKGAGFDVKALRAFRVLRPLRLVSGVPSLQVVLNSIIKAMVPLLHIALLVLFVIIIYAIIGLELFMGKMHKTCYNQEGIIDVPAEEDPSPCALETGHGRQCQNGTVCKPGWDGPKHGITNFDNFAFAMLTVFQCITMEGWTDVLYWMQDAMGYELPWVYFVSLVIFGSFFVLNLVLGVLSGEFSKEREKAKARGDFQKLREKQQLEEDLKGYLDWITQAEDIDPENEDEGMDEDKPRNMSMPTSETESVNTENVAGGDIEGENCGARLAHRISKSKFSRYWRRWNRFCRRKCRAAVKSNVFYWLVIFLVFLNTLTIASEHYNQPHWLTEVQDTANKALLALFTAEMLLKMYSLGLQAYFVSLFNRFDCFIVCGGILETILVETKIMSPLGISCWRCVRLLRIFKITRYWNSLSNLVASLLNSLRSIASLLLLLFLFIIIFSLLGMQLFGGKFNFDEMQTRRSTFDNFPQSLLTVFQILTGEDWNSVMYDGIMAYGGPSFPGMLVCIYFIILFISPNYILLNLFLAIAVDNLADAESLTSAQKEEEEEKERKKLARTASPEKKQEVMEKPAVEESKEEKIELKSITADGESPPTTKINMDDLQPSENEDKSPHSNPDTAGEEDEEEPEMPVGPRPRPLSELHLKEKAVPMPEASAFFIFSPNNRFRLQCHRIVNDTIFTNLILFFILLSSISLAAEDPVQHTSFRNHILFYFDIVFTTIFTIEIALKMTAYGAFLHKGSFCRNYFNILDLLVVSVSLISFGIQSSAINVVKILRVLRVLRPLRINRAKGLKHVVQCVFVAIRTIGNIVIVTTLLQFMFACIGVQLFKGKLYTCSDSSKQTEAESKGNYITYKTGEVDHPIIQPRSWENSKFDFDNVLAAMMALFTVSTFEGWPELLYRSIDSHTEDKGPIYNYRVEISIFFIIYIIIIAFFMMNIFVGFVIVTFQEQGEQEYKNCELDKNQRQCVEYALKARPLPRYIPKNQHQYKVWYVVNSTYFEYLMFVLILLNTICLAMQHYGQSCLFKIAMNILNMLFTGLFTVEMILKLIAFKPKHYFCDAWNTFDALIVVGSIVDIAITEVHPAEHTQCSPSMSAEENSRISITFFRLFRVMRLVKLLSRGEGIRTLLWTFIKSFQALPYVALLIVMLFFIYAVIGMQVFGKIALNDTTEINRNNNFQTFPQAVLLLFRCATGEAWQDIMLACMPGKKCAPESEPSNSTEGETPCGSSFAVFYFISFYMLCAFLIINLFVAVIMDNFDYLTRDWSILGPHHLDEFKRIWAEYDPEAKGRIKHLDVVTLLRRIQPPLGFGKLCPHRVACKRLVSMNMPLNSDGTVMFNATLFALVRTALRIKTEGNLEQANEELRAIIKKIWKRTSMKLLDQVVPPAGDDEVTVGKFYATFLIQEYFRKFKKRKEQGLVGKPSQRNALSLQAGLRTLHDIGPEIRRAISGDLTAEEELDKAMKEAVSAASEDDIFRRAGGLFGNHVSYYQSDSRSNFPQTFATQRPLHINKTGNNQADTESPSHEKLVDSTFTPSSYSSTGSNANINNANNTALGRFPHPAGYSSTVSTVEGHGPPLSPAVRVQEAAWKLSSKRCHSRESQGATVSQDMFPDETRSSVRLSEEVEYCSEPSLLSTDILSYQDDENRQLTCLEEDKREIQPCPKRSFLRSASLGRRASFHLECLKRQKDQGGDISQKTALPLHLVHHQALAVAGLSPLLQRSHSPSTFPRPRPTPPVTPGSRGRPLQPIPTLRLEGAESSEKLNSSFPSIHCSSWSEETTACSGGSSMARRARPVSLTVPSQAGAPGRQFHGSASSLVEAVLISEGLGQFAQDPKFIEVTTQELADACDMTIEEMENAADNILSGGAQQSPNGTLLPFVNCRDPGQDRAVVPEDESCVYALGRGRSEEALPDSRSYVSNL

[9] = target: D(1A) dopamine receptor (Homo sapiens) (UniProt P21728); experiment: D1/HU Eurofins-Panlabs selectivity data (BI); settings: Compound concentration 10.0 uM
[10] = target: Prostaglandin E2 receptor EP4 subtype (Homo sapiens) (UniProt P35408); experiment: EP4/H Eurofins-Panlabs selectivity data (BI); settings: Compound concentration 10.0 uM
[11] = target: Gamma-aminobutyric acid receptor subunit alpha-1 (Rattus norvegicus) (UniProt P62813); experiment: GABAA MUSCIMOL CENT Eurofins-Panlabs selectivity data (BI); settings: Compound concentration 10.0 uM
Sequence of Gamma-aminobutyric acid receptor subunit alpha-1 (Rattus norvegicus) (P62813 whole entry): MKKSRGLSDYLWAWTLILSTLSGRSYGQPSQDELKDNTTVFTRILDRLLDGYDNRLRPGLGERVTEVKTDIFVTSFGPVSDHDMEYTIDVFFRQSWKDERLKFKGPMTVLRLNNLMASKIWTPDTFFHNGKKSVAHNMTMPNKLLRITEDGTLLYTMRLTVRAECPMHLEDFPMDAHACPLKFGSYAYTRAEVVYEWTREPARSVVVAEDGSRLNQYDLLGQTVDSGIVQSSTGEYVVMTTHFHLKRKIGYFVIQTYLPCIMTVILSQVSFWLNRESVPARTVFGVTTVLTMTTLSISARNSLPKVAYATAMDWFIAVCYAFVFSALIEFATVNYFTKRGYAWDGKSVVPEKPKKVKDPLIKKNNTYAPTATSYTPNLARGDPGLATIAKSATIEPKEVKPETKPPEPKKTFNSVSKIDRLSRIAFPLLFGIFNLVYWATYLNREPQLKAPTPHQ

[12] = target: Gamma-aminobutyric acid receptor subunit alpha-1 (Rattus norvegicus) (UniProt P62813); experiment: GABAACENTR Eurofins-Panlabs selectivity data (BI); settings: Compound concentration 10.0 uM
[13] = target: Histamine H3 receptor (Homo sapiens) (UniProt Q9Y5N1); experiment: H3/H Eurofins-Panlabs selectivity data (BI); settings: Compound concentration 10.0 uM
[14] = target: hERG (voltage-gated inwardly rectifying potassium channel KCNH2) (Homo sapiens, UniProt Q12809); experiment: K+/HERG Eurofins-Panlabs selectivity data (BI); settings: compound concentration 10 uM, read-out: % Ctrl
[15] = target: Kappa-type opioid receptor (Homo sapiens) (UniProt P41145); experiment: KAPPA/HU Eurofins-Panlabs selectivity data (BI); settings: Compound concentration 10.0 uM
[16] = target: T2, Muscarinic acetylcholine receptor M2 (Homo sapiens) (UniProt P08172); experiment: M2/HU Eurofins-Panlabs selectivity data (BI)
T2 sequence (whole entry): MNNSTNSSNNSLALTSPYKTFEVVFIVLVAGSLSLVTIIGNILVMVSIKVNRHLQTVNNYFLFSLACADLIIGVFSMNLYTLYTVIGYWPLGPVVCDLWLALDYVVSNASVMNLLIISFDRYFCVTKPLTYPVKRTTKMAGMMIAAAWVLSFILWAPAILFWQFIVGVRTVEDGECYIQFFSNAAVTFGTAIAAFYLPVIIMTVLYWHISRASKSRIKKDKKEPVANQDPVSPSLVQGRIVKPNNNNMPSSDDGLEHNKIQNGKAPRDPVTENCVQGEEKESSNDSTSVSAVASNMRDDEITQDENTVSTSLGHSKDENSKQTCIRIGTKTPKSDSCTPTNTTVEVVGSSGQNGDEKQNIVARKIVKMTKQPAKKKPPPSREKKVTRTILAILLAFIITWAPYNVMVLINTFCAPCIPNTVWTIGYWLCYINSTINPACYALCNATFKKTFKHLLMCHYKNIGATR

[17] = target: Sodium-dependent noradrenaline transporter (Homo sapiens) (UniProt P23975); experiment: NETRANS/H Eurofins-Panlabs selectivity data (BI); settings: Compound concentration 10.0 uM
[18] = target: Glutamate NMDA receptor (Rattus norvegicus) (UniProt P35439+Q00959+Q00960+Q00961+Q62645+Q8VHN2+Q9R1M7); experiment: NMDAAGSI/RA Eurofins-Panlabs selectivity data (BI); assay type: protein-complex assay; settings: filed as agonist, Compound concentration 10.0 uM
[19] = target: Protein kinase C alpha type (Mus musculus) (UniProt P20444); experiment: PHORBOLE/M Eurofins-Panlabs selectivity data (BI); settings: Compound concentration 10.0 uM
[20] = target: 3',5'-cyclic-AMP phosphodiesterase 4A (Rattus norvegicus) (UniProt P54748); experiment: ROLIPRAM/R Eurofins-Panlabs selectivity data (BI); settings: Compound concentration 10.0 uM
Sequence of 3',5'-cyclic-AMP phosphodiesterase 4A (Rattus norvegicus) (P54748 whole entry): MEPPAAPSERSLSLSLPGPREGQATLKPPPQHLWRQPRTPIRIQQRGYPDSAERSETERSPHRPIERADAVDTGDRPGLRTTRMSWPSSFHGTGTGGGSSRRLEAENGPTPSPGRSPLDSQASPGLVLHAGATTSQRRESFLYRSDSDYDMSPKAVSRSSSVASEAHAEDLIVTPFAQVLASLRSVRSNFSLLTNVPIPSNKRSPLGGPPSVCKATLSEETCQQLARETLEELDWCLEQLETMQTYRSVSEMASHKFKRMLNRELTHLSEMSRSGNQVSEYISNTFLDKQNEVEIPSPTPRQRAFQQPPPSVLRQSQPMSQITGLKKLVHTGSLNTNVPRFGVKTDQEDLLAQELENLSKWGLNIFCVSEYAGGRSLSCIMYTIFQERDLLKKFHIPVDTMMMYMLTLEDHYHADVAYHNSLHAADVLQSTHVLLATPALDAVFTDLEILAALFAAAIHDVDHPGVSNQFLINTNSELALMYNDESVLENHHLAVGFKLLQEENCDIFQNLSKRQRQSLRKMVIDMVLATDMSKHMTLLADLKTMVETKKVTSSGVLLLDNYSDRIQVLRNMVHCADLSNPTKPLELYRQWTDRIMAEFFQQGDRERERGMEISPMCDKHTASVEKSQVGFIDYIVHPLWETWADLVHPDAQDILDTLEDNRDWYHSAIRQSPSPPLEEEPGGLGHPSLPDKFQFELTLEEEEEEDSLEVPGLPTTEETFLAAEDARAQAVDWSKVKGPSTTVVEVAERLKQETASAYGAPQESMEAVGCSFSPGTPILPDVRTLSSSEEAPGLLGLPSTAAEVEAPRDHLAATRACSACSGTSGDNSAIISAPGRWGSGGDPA

[21] = target: Androgen receptor (Rattus norvegicus) (UniProt P15207); experiment: TESTOST/RA Eurofins-Panlabs selectivity data (BI); settings: Compound concentration 10.0 uM
Sequence of Androgen receptor (Rattus norvegicus) (P15207 whole entry S389L): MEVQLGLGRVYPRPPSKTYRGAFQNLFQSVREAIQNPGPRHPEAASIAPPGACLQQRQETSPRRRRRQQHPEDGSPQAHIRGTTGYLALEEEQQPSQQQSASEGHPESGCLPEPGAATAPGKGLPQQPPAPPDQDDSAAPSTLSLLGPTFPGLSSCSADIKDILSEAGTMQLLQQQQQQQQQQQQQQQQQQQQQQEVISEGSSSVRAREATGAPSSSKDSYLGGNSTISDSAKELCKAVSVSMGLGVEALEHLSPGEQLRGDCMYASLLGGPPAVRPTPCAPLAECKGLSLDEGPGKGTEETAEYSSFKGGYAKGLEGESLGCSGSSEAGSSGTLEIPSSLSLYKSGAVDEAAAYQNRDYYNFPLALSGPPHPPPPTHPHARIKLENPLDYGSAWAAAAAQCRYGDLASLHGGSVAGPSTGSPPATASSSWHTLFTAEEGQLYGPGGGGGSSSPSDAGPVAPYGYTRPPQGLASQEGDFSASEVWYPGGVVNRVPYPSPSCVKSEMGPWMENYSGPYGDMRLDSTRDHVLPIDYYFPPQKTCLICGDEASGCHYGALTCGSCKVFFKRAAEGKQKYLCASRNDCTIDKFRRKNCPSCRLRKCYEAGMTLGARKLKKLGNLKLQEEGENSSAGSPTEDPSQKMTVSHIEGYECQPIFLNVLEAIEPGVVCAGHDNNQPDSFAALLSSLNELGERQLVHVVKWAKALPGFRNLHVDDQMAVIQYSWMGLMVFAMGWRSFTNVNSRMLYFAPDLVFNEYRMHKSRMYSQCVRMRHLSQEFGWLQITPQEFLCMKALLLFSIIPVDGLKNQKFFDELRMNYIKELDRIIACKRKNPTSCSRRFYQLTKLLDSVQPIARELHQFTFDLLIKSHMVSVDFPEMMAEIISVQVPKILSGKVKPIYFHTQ

[22] = target: Neuropeptide Y receptor type 1 (Homo sapiens) (UniProt P25929); experiment: Y1/HU Eurofins-Panlabs selectivity data (BI); settings: Compound concentration 10.0 uM
[23] = target: 5-hydroxytryptamine receptor 1A (Homo sapiens) (UniProt P08908); settings: Compound concentration 10.0 uM
[24] = Human platelet swelling inhibition (hPSA) assay

`CC(=O)N1CCC(c2ccc(C(=O)NC3=NCCN3)cc2C(F)(F)F)CC1` [BI 0054] gave a residual activity [1] of 100% and an inhibition [2] of -9.37%.
`CC(=O)N1CCC(c2ccc(C(=O)NC(=N)N)cc2C(F)(F)F)CC1` [BI 9627] gave a Ki [3] of 10 µM, a residual activity [4] of 82% and a residual activity [5] of 89%. The residual activity [6] was 86%, the residual activity [7] was 86% and the activity at 10 µM [8] was 77% (not active). The residual activity [9] was 94%, the residual activity [10] was 99% and the residual activity [11] was 89%. The residual activity [12] was 92%, the residual activity [13] was 109% and the activity at 10 µM [14] was 105% (not active). The residual activity [15] was 74%, the residual activity ([16]; Compound concentration 0.03 uM) was 102% and the residual activity ([16]; Compound concentration 0.1 uM) was 108%. It also gave a residual activity ([16]; Compound concentration 0.3 uM) of 71%, a residual activity ([16]; Compound concentration 1.0 uM) of 70% and a residual activity ([16]; Compound concentration 3.0 uM) of 48%. The residual activity ([16]; Compound concentration 10.0 uM) was 33%, the residual activity ([16]; Compound concentration 30.0 uM) was 11% and the residual activity [17] was 91%. For the same compound, the residual activity [18] was 90%, the residual activity [19] was 101% and the residual activity [20] was 92%. The residual activity [21] was 95%, the residual activity [22] was 94% and the inhibition [23] was -5.21%. The IC50 [24] was 31 nM (active).
